The text below walks through data of patent US12545669B2, “Cycloalkyl and heterocycloalkyl benzisoxazole sulfonamide derivatives” (Pfizer Inc., priority 2019, dated 2026).

This assay deals with KAT6A (Homo sapiens (Human), UniProt Q92794). Nature of the assay: KAT assay protocol (SAMDI mass spectrometry), KAT6A. It is filed as biochemical. As to conditions: for inhibition at 1 µM: 1 μM compound; for IC50: KAT6A IC50 at 1 μM AcCoA, 1 μM AcCoA; for Ki: 10 μM AcCoA, Morrison equation. Here is the method: Biological Assay Section 1 KAT Assay Protocol:
A. Compound Preparation • 1. Prepare 10 mM stock solutions in 100% DMSO from solid material • 2. Serial dilute 10 mM, 1 mM or 0.1 mM compound stocks 3-fold in 100% DMSO for 11-point dose response
B. Reagent Preparation • 1. Prepare 1× assay buffer containing 10 mM Tris HCL pH 8.0, 2.5 mM NaCl, 0.5 mM EDTA, 0.005% BSG and 0.02% Tween-20 • 2. Dilute Histone peptide (CPC Scientific) and AcCoA (Sigma) together in assay buffer to 2×. • 3. Dilute KAT enzyme in assay buffer to 2×.
C. Enzyme Reaction • 1. Final reaction conditions for each KAT assay in a 20 ul assay reaction volume: • i. […] Add 0.5 ul of diluted compound to the assay plate (384-well V-bottom polypropylene plates) or 0.5 ul of DMSO for control wells. • 3. Add 10 ul of 2× Histone peptide/2× AcCoA mix to the assay plate. • 4. Add 10 ul of 2× enzyme to the assay plate. • 5. Stop the reaction after the indicated time with the addition of 2 ul of 5% formic acid • 6. Each reaction was analyzed using self-assembled monolayer desorption/ionization time-of-flight mass spectrometry (Mrksich, Milan (2008) Mass Spectrometry of Self-Assembled Monolayers: A New Tool for Molecular Surface Science ACS Nano 2008 2 (1), 7-18; SAMDI Tech, Inc. (Chicago, IL)). • 7. Area under the curve (AUC) for both substrate and product peaks was determined for KAT6A at M.W. 2723 [Substrate+H]^+ and 2765 [Product+H]^+ with a +/−1 Da tolerance, respectively. • 8. Percent conversion to product was calculated by: AUCProduct/(AUCSubstrate+AUCProduct).
D. Data Analysis • 1. IC50 values were determined by fitting the % conversion at each inhibitor concentration to the 4-parameter IC50 equation using Pfizer proprietary curve fitting software. • 2. Ki values were determined by fitting the % conversion at each inhibitor concentration to the Morrison equation for tightbinding competitive inhibitors using Pfizer proprietary curve fitting software. Materials
KAT enzymes were expressed using a baculovirus expression system and purified at Pfizer, La Jolla. Histone H3 (1-21) peptide ([…], SEQ ID NO:3) was purchased from CPC Scientific (Sunnyvale, CA). Acetyl coenzyme A was purchased from Sigma-Aldrich (St. Louis, MO). All other biochemical reagents were purchased from Sigma-Aldrich or ThermoFisher Scientific (Waltham, MA).
[…] 10 ul of 2× Histone peptide/AcCoA mix was added to a 384-well V-bottom polypropylene assay plate containing 0.5 ul of serially diluted test compound in 100% dimethyl sulfoxide (DMSO). To start the reaction, 10 ul of 2× enzyme solution was added to the assay plate. KAT assays were terminated after 30-60 minutes with the addition of 2 ul of 5% formic acid. KAT6A used histone H3 (1-21) peptide. The final enzyme concentration for KAT6A was 15 nM. Each reaction was analyzed using self-assembled monolayer desorption/ionization time-of-flight mass spectrometry (Mrksich, Milan (2008) Mass Spectrometry of Self-Assembled Monolayers: A New Tool for Molecular Surface Science ACS Nano 2008 2 (1), 7-18; SAMDI Tech, Inc. (Chicago, IL)).
Area under the curve (AUC) for both substrate and product peaks was determined for KAT6A at M.W. 2723 [Substrate+H]^+ and 2765 [Product+H]^+ with a +/−1 Da tolerance, respectively. Percent conversion to product was calculated by: AUCProduct/(AUCSubstrate+AUCProduct). IC50 values were determined by fitting the % conversion at each inhibitor concentration to the 4-parameter IC50 equation using Pfizer proprietary curve fitting software. Ki values were determined by fitting the % conversion at each inhibitor concentration to the Morrison equation for tightbinding competitive inhibitors using Pfizer proprietary curve fitting software.

Setting [1] is: read-out: KAT6A Ki at 10 μM AcCoA.

Like-named read-outs stand apart in the source and are kept apart here.

KAT6A, sequence (Q92794 whole entry): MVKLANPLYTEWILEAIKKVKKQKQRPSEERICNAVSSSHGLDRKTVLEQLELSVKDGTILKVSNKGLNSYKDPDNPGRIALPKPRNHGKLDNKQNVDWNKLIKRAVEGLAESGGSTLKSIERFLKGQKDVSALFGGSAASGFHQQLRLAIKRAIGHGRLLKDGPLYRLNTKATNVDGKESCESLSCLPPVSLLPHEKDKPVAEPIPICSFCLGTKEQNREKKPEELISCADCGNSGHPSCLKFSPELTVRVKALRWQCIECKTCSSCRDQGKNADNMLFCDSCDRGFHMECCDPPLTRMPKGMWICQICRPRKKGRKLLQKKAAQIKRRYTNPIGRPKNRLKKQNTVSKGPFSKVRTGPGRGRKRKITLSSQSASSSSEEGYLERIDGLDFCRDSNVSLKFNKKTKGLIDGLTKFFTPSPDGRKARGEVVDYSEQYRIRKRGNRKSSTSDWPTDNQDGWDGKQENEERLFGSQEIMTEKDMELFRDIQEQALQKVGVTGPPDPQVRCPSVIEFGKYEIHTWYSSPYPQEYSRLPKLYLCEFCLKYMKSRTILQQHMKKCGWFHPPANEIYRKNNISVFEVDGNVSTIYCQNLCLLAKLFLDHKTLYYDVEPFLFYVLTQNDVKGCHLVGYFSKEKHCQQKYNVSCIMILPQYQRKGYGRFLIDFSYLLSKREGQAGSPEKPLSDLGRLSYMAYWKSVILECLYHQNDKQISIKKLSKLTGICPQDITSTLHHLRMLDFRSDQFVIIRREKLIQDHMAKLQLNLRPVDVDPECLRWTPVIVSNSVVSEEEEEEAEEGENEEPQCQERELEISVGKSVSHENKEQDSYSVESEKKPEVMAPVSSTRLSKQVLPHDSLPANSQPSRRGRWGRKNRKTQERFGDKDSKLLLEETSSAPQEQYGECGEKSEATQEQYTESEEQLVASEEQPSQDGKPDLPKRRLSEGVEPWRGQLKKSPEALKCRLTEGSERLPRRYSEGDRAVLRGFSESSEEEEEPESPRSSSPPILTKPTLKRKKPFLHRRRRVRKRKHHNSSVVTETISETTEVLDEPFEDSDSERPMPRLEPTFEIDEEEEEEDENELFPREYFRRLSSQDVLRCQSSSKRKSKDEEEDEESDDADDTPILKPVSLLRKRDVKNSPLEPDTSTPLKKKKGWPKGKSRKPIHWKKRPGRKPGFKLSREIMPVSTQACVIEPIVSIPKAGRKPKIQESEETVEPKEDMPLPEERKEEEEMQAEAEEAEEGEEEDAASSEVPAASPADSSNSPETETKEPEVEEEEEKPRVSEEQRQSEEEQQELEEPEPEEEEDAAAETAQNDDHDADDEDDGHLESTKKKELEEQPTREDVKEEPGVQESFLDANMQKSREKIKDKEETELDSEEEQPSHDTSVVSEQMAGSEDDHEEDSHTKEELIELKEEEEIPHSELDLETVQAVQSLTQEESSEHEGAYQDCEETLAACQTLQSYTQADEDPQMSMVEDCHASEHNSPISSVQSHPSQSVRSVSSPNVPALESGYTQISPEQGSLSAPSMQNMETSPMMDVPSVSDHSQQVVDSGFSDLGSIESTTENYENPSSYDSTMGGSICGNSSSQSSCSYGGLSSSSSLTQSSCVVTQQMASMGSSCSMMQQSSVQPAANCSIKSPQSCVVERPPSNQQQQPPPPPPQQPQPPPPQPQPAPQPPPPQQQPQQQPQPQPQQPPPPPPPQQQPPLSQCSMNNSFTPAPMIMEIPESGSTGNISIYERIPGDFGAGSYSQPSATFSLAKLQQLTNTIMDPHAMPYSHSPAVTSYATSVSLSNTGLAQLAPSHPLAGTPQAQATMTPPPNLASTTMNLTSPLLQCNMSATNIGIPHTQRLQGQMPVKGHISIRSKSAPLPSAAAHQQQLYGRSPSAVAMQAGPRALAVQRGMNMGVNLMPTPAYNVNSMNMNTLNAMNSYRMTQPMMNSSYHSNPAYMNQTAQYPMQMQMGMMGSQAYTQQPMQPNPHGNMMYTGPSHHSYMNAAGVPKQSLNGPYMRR

As usually defined, the inhibition is the relative decrease from the control value, in per cent. Usually IC50 stands for the midpoint of a concentration-inhibition curve. Low values mean higher potency, high ones lower potency. Take `COc1cc(Cn2cccn2)cc2onc(NS(=O)(=O)CC3CCCCO3)c12` (single isomer, unassigned; (+)) [Example 1, (+)-N-{4-methoxy-6-[(1H-pyrazol-1-yl)methyl]-1,2-benzoxazol-3-yl}-1-(oxan-2-yl)methanesulfonamide]: the inhibition at 1 µM was 88% and the concentration for half-maximal inhibition (IC50) worked out at 117 nM. On to `COc1cc(Cn2cccn2)cc2onc(NS(=O)(=O)CC3CCCCO3)c12` (single isomer, unassigned; (-)) [Example 2, (−)-N-{4-methoxy-6-[(1H-pyrazol-1-yl)methyl]-1,2-benzoxazol-3-yl}-1-(oxan-2-yl)methanesulfonamide], for which the half-inhibitory concentration (IC50) worked out at 270 nM. On the same count and under the same terms, the same measure for `COc1cc(Cn2cccn2)cc2onc(NS(=O)(=O)CC3CCCOC3)c12` (stereo not shown) [Example 3]: 301 nM. With `COc1cc(Cn2cccn2)cc2onc(NS(=O)(=O)CC3CCCOC3)c12` (stereo not shown) [Example 4], the IC50 was determined as 349 nM. `COc1cc(Cn2cccn2)cc2onc(NS(=O)(=O)CC3CCCO3)c12` (stereo not shown) [Example 5] displayed an IC50 of 323 nM. Same read-out and setting: with `COc1cc(Cn2cccn2)cc2onc(NS(=O)(=O)CC3CCCO3)c12` (stereo not shown) [Example 6] the figure was 371 nM.

As usually defined, the Ki is the dissociation constant of the complex between target and ligand, obtained from inhibition or displacement. As to `COc1cc(Cn2cccn2)cc2onc(NS(=O)(=O)CC3CCOCC3)c12` [Example 7, N-{4-methoxy-6-[(1H-pyrazol-1-yl)methyl]-1,2-benzoxazol-3-yl}-1-(oxan-4-yl)methanesulfonamide], the inhibition at 1 µM is 51%. Besides, the Ki (KAT6A Ki at 10 μM AcCoA) is 177 nM. On to `COc1cc(Cn2cccn2)cc2onc(NS(=O)(=O)CC3CCC(F)CC3)c12` (stereo not shown) [Example 8], for which the inhibition at 1 µM turned out to be 77%. `COc1cc(Cn2cccn2)cc2onc(NS(=O)(=O)CC3CCCC3)c12` [Example 9]: the inhibition at 1 µM worked out at 91%. The molecule also returned a Ki (KAT6A Ki at 10 μM AcCoA) of 60.1 nM. For `COc1cc(Cn2cccn2)cc2onc(NS(=O)(=O)CC3CCC(F)(F)CC3)c12` [Example 10], in that order: 48% and 89.4 nM. On the same counts, the results for `CCOC1(CS(=O)(=O)Nc2noc3cc(Cn4cccn4)cc(OC)c23)CCC1` [Example 11] are 45% and 371 nM. As to `COc1cc(Cn2cccn2)cc2onc(NS(=O)(=O)C3CCC3)c12` [Example 12], the inhibition at 1 µM is 59%. Moreover, the inhibition constant Ki under setting [1] came out at 199 nM. Consider `COc1cc(Cn2cccn2)cc2onc(NS(=O)(=O)C3CC3)c12` [Example 13], for which the inhibition constant (Ki) under setting [1] stood at 224 nM. The molecule `COc1cc(Cn2cccn2)cc2onc(NS(=O)(=O)C3CC(CC#N)C3)c12` (stereo not shown) [Example 14] came in with a Ki (KAT6A Ki at 10 μM AcCoA) of 160 nM. With `COc1cc(Cn2cccn2)cc2onc(NS(=O)(=O)C3CCC(C#N)C3)c12` (stereo not shown) [Example 16], the inhibition at 1 µM was 81%. Turning to `COc1cc(Cn2cccn2)cc2onc(NS(=O)(=O)CC3CCC3)c12` [Example 17], the inhibition at 1 µM was determined as 83%. In addition, the affinity (KAT6A Ki at 10 μM AcCoA) corresponds to a Ki of 82.4 nM.

For `COc1cc(Cn2cccn2)cc2onc(NS(=O)(=O)[C@H]3CCC[C@H]3OC)c12` [Example 18], the inhibition at 1 µM amounted to 83%. Also, under setting [1], the inhibition constant (Ki) amounted to 71.9 nM.

For the molecule `COc1cc(Cn2cccn2)cc2onc(NS(=O)(=O)CC3CCCC(F)(F)C3)c12` (stereo not shown) [Example 19], the inhibition at 1 µM was determined as 81%. The Ki (KAT6A Ki at 10 μM AcCoA) was found to be 65.3 nM. For the molecule `COc1cc(Cn2cccn2)cc2onc(NS(=O)(=O)C3CCCC3)c12` [Example 20], the Ki under setting [1] was determined as 36.5 nM.

On to `COc1cc(Cn2cccn2)cc2onc(NS(=O)(=O)C3CCC(C)C3)c12` (stereo not shown) [Example 21], for which the inhibition at 1 µM was found to be 84%. Further, the inhibitory constant (Ki) (KAT6A Ki at 10 μM AcCoA) was 34.5 nM.

On to `COc1cc(Cn2cccn2)cc2onc(NS(=O)(=O)CC3(C)CCCCC3)c12` [Example 22], for which the inhibition at 1 µM was determined as 60%. Where the note is “KAT6A Ki at 10 μM AcCoA”, this molecule came in with a Ki of 33.2 nM. For `COc1cc(Cn2cccn2)cc2onc(NS(=O)(=O)CCC3CC3)c12` [Example 23], in that order: 92% and 31.6 nM. On the same counts, the results for `COc1cc(Cn2cccn2)cc2onc(NS(=O)(=O)CC34CCC(CC3)CC4)c12` [Example 24] are 93% and 19.5 nM. On the same counts, the results for `COc1cc(Cn2cccn2)cc2onc(NS(=O)(=O)[C@H]3C[C@H]4CC[C@H]3C4)c12` [Example 25] are 87% and 16.5 nM.

As for `CC[C@@H]1C[C@@H]1S(=O)(=O)Nc1noc2cc(Cn3cccn3)cc(OC)c12` [Example 26], the inhibition at 1 µM worked out at 71%. Where the note is “KAT6A Ki at 10 μM AcCoA”, `COc1cc(Cn2cccn2)cc2onc(NS(=O)(=O)[C@H]3C[C@@H]3c3ccc(F)cc3)c12` [Example 27] showed a Ki of 13.8 nM. Regarding `COc1cc(Cn2cccn2)cc2onc(NS(=O)(=O)[C@H]3C[C@H]3c3ccccc3)c12` [Example 28], the Ki under setting [1] was 14.2 nM.

Regarding `COc1cc(Cn2cccn2)cc2onc(NS(=O)(=O)CCC3CCC3)c12` [Example 29], the inhibition at 1 µM came to 103%. Under “KAT6A Ki at 10 μM AcCoA”, this molecule gave a Ki of 13.1 nM. On the same counts, the results for `COc1cc(Cn2cccn2)cc2onc(NS(=O)(=O)CC3CC4CCC3C4)c12` (stereo not shown) [Example 30] are 98% and 7.32 nM. Regarding `COc1cc(Cn2cccn2)cc2onc(NS(=O)(=O)CCC3CCCCC3)c12` [Example 31], the inhibition at 1 µM stood at 93%. Moreover, the inhibition constant Ki (KAT6A Ki at 10 μM AcCoA) came to 4.94 nM. For `COc1cc(Cn2cccn2)cc2onc(NS(=O)(=O)CCC(C)(C)C3CC3)c12` [Example 32], in that order: 108% and 4.88 nM. Turning to `COc1cc(Cn2cccn2)cc2onc(NS(=O)(=O)C3CC4(CCC4)C3)c12` [Example 33], the inhibition at 1 µM amounted to 65%. Same read-out and setting: the same measure for `COc1cc(Cn2cccn2)cc2onc(NS(=O)(=O)CC3(C(F)(F)F)CC3)c12` [Example 34]: 46%; for `COc1cc(Cn2cccn2)cc2onc(NS(=O)(=O)CC3(C#N)CC3)c12` [Example 35]: 40%.

Turning to `COc1cc(Cn2cccn2)cc2onc(NS(=O)(=O)CC3CC(F)(F)C3)c12` [Example 36], the inhibition at 1 µM was found to be 51%. On the same count and under the same terms, the same measure for `COc1cc(Cn2cccn2)cc2onc(NS(=O)(=O)CCCC3CCCCC3)c12` [Example 37]: 98%; for `COc1cc(Cn2cccn2)cc2onc(NS(=O)(=O)CC3CC4(CCC4)C3)c12` [Example 38]: 92%. Still for that read-out and setting: the same measure for `COc1cc(Cn2cccn2)cc2onc(NS(=O)(=O)CC3(C)CC3)c12` [Example 39]: 52%; for `COc1cc(Cn2cccn2)cc2onc(NS(=O)(=O)CC3(C#N)CCCCC3)c12` [Example 40]: 58%.

Regarding `COc1cc(Cn2cccn2)cc2onc(NS(=O)(=O)CC3CCCCC3(F)F)c12` (stereo not shown) [Example 41], the inhibition at 1 µM is 91%. On the same count and under the same terms, the same measure for `COc1cc(Cn2cccn2)cc2onc(NS(=O)(=O)CC3(C)CC3(F)F)c12` (stereo not shown) [Example 42]: 50%; for `COc1cc(Cn2cccn2)cc2onc(NS(=O)(=O)C3CCC(OC)CC3)c12` (stereo not shown) [Example 44]: 89%; for `COc1cc(Cn2cccn2)cc2onc(NS(=O)(=O)CCC3CC4CCC3C4)c12` (stereo not shown) [Example 45]: 108%. Still for that read-out and setting: the same measure for `COc1cc(Cn2cccn2)cc2onc(NS(=O)(=O)CC(OC)C3CCCCC3)c12` (stereo not shown) [Example 46]: 103%; for `COCC1(S(=O)(=O)Nc2noc3cc(Cn4cccn4)cc(OC)c23)CC1` [Example 47]: 68%; for `COc1cc(Cn2cccn2)cc2onc(NS(=O)(=O)CC(C)C3CC3)c12` (stereo not shown) [Example 48]: 55%.
